The inhibition is the drop in the measured response relative to a control, in per cent. A word on the IC50: it is the concentration needed to halve the response being measured. One may read the half-life as the time in which the quantity being followed falls by half. Broadly, the MRT last is a mean duration of stay, worked out from the concentration-time curve. As a reminder, the AUC is concentration integrated over time. As a reminder, the Tmax is the time from dosing to the highest level. Usually Cmax stands for the peak of the concentration-time curve. A word on the AUC(0-t): it is the area under the concentration-time curve up to a stated or last time point.

The subject of series [1] is NIH3T3. The series can be described thus: Antiproliferative activity against TGFbeta-induced mouse NIH3T3 cells assessed as cell growth inhibition at 1 mM incubated for 48 hrs by CCK-8 assay. It counts as functional. The conditions noted are these: NIH3T3, 48 h. A general note: Tetrazolium assays rely on reduction of a dye to a coloured formazan, in cell work by metabolically active cells.

In series [2] the test system is NIH3T3. The series can be described thus: Antiproliferative activity against TGFbeta-induced mouse NIH3T3 cells assessed as cell growth inhibition incubated for 48 hrs by CCK-8 assay. As to conditions: NIH3T3, 48 h. It counts as functional, cell-based.
Series [3] has as its system NIH3T3. The series can be described thus: Anti-fibrogenic activity against mouse NIH3T3 cells assessed as inhibition of TGFbeta-induced COL1 protein expression at 0.5 to 10 mM incubated for 48 hrs by western blot assay. The conditions noted are these: dose 0.5-10 mM, DDE = dose-dependent effect. It counts as functional, cell-based.
Series [4] in a line: Metabolic stability in rat liver microsomes assessed as intrinsic clearance measured upto 45 mins in presence of NADPH by LC/MS analysis. As to conditions: read-out: CLH. It counts as ADME, Microsome. Background: Liver microsomes are a subcellular fraction often used to study metabolism.
Series [5] has as its system NIH3T3. The series can be described thus: Induction of apoptosis in TGFbeta-induced mouse NIH3T3 cells assessed as increase in apoptosis rate at 10 mM incubated for 48 hrs by Annexin V-FITC/PI staining based flow cytometry. It counts as functional.
Series [6] can be described thus: Metabolic stability in human liver microsomes assessed as half life measured upto 45 mins in presence of NADPH by LC/MS analysis. It is filed as ADME, Microsome.
The subject of series [7] is NIH3T3. The series can be described thus: Anti-fibrogenic activity against mouse NIH3T3 cells assessed as inhibition of TGFbeta-induced alpha-SMA protein expression at 0.5 to 10 mM incubated for 48 hrs by western blot assay. It counts as functional, cell-based. The conditions noted are these: dose 0.5-10 mM, DDE = dose-dependent effect. On the technique in general: In western blotting, separated proteins are transferred to a membrane and probed.

Series [8] deals with NIH3T3. The series can be described thus: Anti-fibrogenic activity against mouse NIH3T3 cells assessed as inhibition of TGFbeta-induced Fn protein expression at 0.5 to 10 mM incubated for 48 hrs by western blot assay. It is filed as functional, cell-based. As to conditions: dose 0.5-10 mM, DDE = dose-dependent effect.
The nature of series [9]: Metabolic stability in human liver microsomes assessed as intrinsic clearance measured upto 45 mins in presence of NADPH by LC/MS analysis. As to conditions: read-out: CLH. It is filed as ADME, Microsome.
Series [10] is described as follows: Metabolic stability in rat liver microsomes assessed as half life measured upto 45 mins in presence of NADPH by LC/MS analysis. It counts as ADME, Microsome.
Series [11] has as its system NIH3T3. The series can be described thus: Anti-fibrogenic activity against mouse NIH3T3 cells assessed as inhibition of TGFbeta-induced Fn protein expression at 0.01 to 0.2 mM incubated for 48 hrs by western blot assay. It is filed as functional, cell-based. The conditions noted are these: dose 0.01-0.2 mM, DDE = dose-dependent effect.
In series [12] the test system is NIH3T3. The series can be described thus: Induction of apoptosis in TGFbeta-induced mouse NIH3T3 cells assessed as increase in apoptosis rate at 0.05 mM incubated for 48 hrs by Annexin V-FITC/PI staining based flow cytometry. It counts as functional.
Series [13] deals with NIH3T3. The series can be described thus: Induction of apoptosis in TGFbeta-induced mouse NIH3T3 cells assessed as increase in apoptosis rate at 0.05 to 0.2 mM incubated for 48 hrs by Annexin V-FITC/PI staining based flow cytometry. It is filed as functional, cell-based. The conditions noted are these: dose 0.05-0.2 mM, DDE = dose-dependent effect.
Series [14] in a line: MRT (0 to t) in rat at 2 mg/kg,iv by HPLC-UV analysis. It is filed as ADME, organism-based. As to conditions: in vivo.
Series [15] can be described thus: AUC (0-infinity) in rat at 10 mg/kg,po by HPLC-UV analysis. As to conditions: in vivo. It is filed as ADME, organism-based. The arrangement: time infinity, dose 10 mg/kg, route po.
A short description of series [16]: Oral bioavailability in rat at 10 mg/kg by HPLC-UV analysis. It is filed as ADME, organism-based. As to conditions: in vivo.
Series [17] can be described thus: Tmax in rat at 10 mg/kg,po by HPLC-UV analysis. It counts as ADME, organism-based. The conditions noted are these: in vivo.
For series [18], the system named is NIH3T3. The series can be described thus: Anti-fibrogenic activity against mouse NIH3T3 cells assessed as inhibition of TGFbeta-induced COL1 protein expression at 0.01 to 0.2 mM incubated for 48 hrs by western blot assay. It is filed as functional, cell-based. As to conditions: dose 0.01-0.2 mM, DDE = dose-dependent effect.
The test system of series [19] is NIH3T3. The series can be described thus: Anti-fibrogenic activity against mouse NIH3T3 cells assessed as reduction in TGFbeta-induced Smad2 phosphorylation level at 0.01 to 0.2 mM incubated for 48 hrs by western blot assay. It is filed as functional, cell-based. As to conditions: dose 0.01-0.2 mM, DDE = dose-dependent effect.
Series [20] in a line: Cmax in rat at 10 mg/kg,po by HPLC-UV analysis. It counts as ADME, organism-based. On the set-up: dose 10 mg/kg, route po. The conditions noted are these: in vivo.
The nature of series [21]: AUC (0-infinity) in rat at 2 mg/kg,iv by HPLC-UV analysis. It counts as ADME, organism-based. On the set-up: time infinity, dose 2 mg/kg, route iv. The conditions noted are these: in vivo.
A short description of series [22]: Tmax in rat at 2 mg/kg,iv by HPLC-UV analysis. It is filed as ADME, organism-based. As to conditions: in vivo.
Series [23] can be described thus: Half life in rat at 10 mg/kg,po by HPLC-UV analysis. It is filed as ADME, organism-based. As to conditions: in vivo.
Series [24] has as its system NIH3T3. The series can be described thus: Anti-fibrogenic activity against mouse NIH3T3 cells assessed as reduction in TGFbeta-induced Smad3 phosphorylation level at 0.01 to 0.2 mM incubated for 48 hrs by western blot assay. It is filed as functional, cell-based. The conditions noted are these: dose 0.01-0.2 mM, DDE = dose-dependent effect.
Series [25] deals with NIH3T3. The series can be described thus: Anti-fibrogenic activity against mouse NIH3T3 cells assessed as inhibition of TGFbeta-induced migration rate at 0.1 to 0.4 mM incubated for 48 hrs by wound healing assay. It is filed as functional, cell-based. The conditions noted are these: dose 0.1-0.4 mM, DDE = dose-dependent effect.
The nature of series [26]: Half life in rat at 2 mg/kg,iv by HPLC-UV analysis. The conditions noted are these: in vivo. It counts as ADME, organism-based.
Series [27] in a line: Cmax in rat at 2 mg/kg,iv by HPLC-UV analysis. As to conditions: in vivo. The arrangement: dose 2 mg/kg, route iv. It counts as ADME, organism-based.
Series [28] has as its system NIH3T3. The series can be described thus: Anti-fibrogenic activity against mouse NIH3T3 cells assessed as inhibition of TGFbeta-induced alpha-SMA protein expression at 0.01 to 0.2 mM incubated for 48 hrs by western blot assay. The conditions noted are these: dose 0.01-0.2 mM, DDE = dose-dependent effect. It is filed as functional, cell-based.
A short description of series [29]: AUC (0-t) in rat at 2 mg/kg,iv by HPLC-UV analysis. As to conditions: in vivo. It counts as ADME, organism-based. The arrangement: dose 2 mg/kg, route iv.
A short description of series [30]: AUC (0-t) in rat at 10 mg/kg,po by HPLC-UV analysis. It is filed as ADME, organism-based. On the set-up: dose 10 mg/kg, route po. The conditions noted are these: in vivo.
Series [31] in a line: MRT (0 to t) in rat at 10 mg/kg,po by HPLC-UV analysis. It is filed as ADME, organism-based. As to conditions: in vivo.

Consider `O=C(Cc1cccc(F)c1)Nc1ccc(=O)n(-c2ccccc2)c1`, for which, in the series on NIH3T3 [1], the inhibition at 1000 µM was found to be 21.9%.
Turning to `O=C(Cc1ccccc1Cl)Nc1ccc(=O)n(-c2ccccc2)c1`, the IC50 in the series on NIH3T3 [2] came out at 1.98 mM. Also, the inhibition at 1000 µM in the series with NIH3T3 [1] came to 35.2%.
`O=C(Nc1ccc(=O)n(-c2ccccc2)c1)c1ccccc1F`: the inhibition at 1000 µM in the series with NIH3T3 [1] amounted to 3.5%.
In the case of `O=C(Cc1ccc(F)cc1)Nc1ccc(=O)n(-c2ccccc2)c1`, the IC50 with NIH3T3 [2] amounted to 1.56 mM. Further, the inhibition at 1000 µM in the series with NIH3T3 [1] came to 39%.
For `O=C(Cc1ccccc1Br)Nc1ccc(=O)n(-c2ccccc2)c1`, in that order: 1.09 mM and 48.9%.
Turning to `O=C(Cc1cccc(Br)c1)Nc1ccc(=O)n(-c2ccccc2)c1`, the inhibition at 1000 µM with NIH3T3 [1] worked out at 2.1%.
Take `Cc1ccc(CC(=O)Nc2ccc(=O)n(-c3ccccc3)c2)cc1`: the IC50 with NIH3T3 [2] was 0.95 mM. Also, in the series with NIH3T3 [1], the inhibition at 1000 µM was found to be 52.2%.
For `O=C(Cc1ccc(Br)cc1)Nc1ccc(=O)n(-c2ccccc2)c1`, in that order: 1.11 mM and 45.7%.
Turning to `O=C(Cc1cccc(Cl)c1)Nc1ccc(=O)n(-c2ccccc2)c1`, the inhibition at 1000 µM with NIH3T3 [1] is 27.6%.
Still for that read-out and setting: as for `Cc1cccc(CC(=O)Nc2ccc(=O)n(-c3ccccc3)c2)c1`, the figure is 19.8%.
On to `Cc1ccc(CC(=O)Nc2ccc(=O)n(-c3ccccc3)c2)c(C)c1`, for which the half-inhibitory concentration (IC50) in the series with NIH3T3 [2] was 0.24 mM. In addition, in the series with NIH3T3 [1], the inhibition at 1000 µM was 68.9%.
In the same order, the values of `O=C(Cc1ccccc1C(F)(F)F)Nc1ccc(=O)n(-c2ccccc2)c1` are 1.36 mM and 37.8%.
With `O=C(Cc1ccc(Cl)cc1)Nc1ccc(=O)n(-c2ccccc2)c1`, the 50% inhibitory concentration (IC50) with NIH3T3 [2] was found to be 1.34 mM. Further, the inhibition at 1000 µM with NIH3T3 [1] is 37.1%.
With `Cc1ccc(=O)n(-c2ccccc2)c1` [PIRFENIDONE], the Activity entry with NIH3T3 [3] was “Dde”; in the series on NIH3T3 [5], 31.9%; with NIH3T3 [7], “Dde”; in the series with NIH3T3 [8] it was “Dde”. Moreover, the values for the CLint scaled in series [4] and in series [9] were 1730 mL/min/kg and 1230 mL/min/kg, respectively. Besides, the half-life was 5.76 min in series [6] and 1.46 min in [10]. The IC50 in the series on NIH3T3 [2] came out at 13.7 mM.
Regarding `Cc1ccccc1CC(=O)Nc1ccc(=O)n(-c2ccccc2)c1`, in the series with NIH3T3 [2], the IC50 was 0.73 mM. Further, the inhibition at 1000 µM in the series on NIH3T3 [1] was 56.1%.
Regarding `O=C(CC1CCCCC1)Nc1ccc(=O)n(-c2ccccc2)c1`, the inhibition at 1000 µM in the series with NIH3T3 [1] is 4.5%.
On the same count and under the same terms, as for `O=C(Cc1c(F)cc(F)cc1F)Nc1ccc(=O)n(-c2ccccc2)c1`, the figure is 28.1%.
In the case of `Cc1cc(C)c(CC(=O)Nc2ccc(=O)n(-c3ccccc3)c2)c(C)c1`, the Activity entry in the series on NIH3T3 [11] was “Dde”; in the series with NIH3T3 [12], 34.5%; in the series on NIH3T3 [13], “Dde”; with NIH3T3 [18], “Dde”; with NIH3T3 [19] it was “Dde”; in the series on NIH3T3 [24], “Dde”. Also, the Activity result in the series with NIH3T3 [25] and with NIH3T3 [28] was “Dde” in each case. Also, the values for the CLint scaled in [4] and in series [9] were 110 mL/min/kg and 63.9 mL/min/kg, respectively. Further, the figures for the MRT last in series [14] and in [31] were 51.4 min and 290 min, respectively. Besides, the values for the AUC in [15] and in series [21] were 406.5 ng·h/mL and 701.17 ng·h/mL, respectively. This compound also gave a F in series [16] of 51%. Moreover, the Tmax amounted to 60.7 min in [17] and 4.98 min in series [22]. Moreover, the Cmax in series [20] amounted to 68.5 ng/mL; in series [27], 712 ng/mL. Besides, the half-life in series [6] is 27.2 min; in [23] it was 166 min; in series [26], 41.6 min; in series [10], 22.5 min. Also, the IC50 with NIH3T3 [2] amounted to 0.14 mM. Moreover, the AUC(0-t) came out at 701 ng·h/mL in series [29] and 332 ng·h/mL in series [30]. For the same compound, the inhibition at 1000 µM in the series on NIH3T3 [1] is 74.4%.
On to `O=C(Cc1ccccc1F)Nc1ccc(=O)n(-c2ccccc2)c1`, for which, in the series with NIH3T3 [1], the inhibition at 1000 µM was found to be 28.7%.

(Values after ChEMBL document CHEMBL5107973, “Synthesis and structure-activity relationships of pirfenidone derivatives as anti-fibrosis agents in vitro” (RSC Med Chem, 2022).)
